Columns and labels:
[1] = system: HEK 293, M468 and NCI-H226; test: In vitro cytotoxicity by MTT assay, summary over all cell lines; format: cell-based; settings: on all cell lines
Procedure, shortened: (§1)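 First, trypsinized cells went into wells at roughly 10,000 per well for 24 h. Next, medium was replaced with test compounds for 72 h at 37 °C. Finally, MTT was added for 4 h and the propanol-solubilized formazan read at 490 nm.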

[2] = In vitro cytotoxicity by MTT assay, HEK 293; format: cell-based, human; settings: human, HEK 293 cells, read-out: % cytotoxicity (100 − % cell survival) of HEK 293 cell line
Procedure, shortened: as §1

[3] = In vitro cytotoxicity by MTT assay, NCI-H226; format: cell-based; settings: human, NCI-H226 lung cancer cells, 0.015 μM, read-out: % Cytotoxicity (100 − % cell survival) of NCI-H226 cell line
Procedure, shortened: as §1

[4] = system: NCI-H226 (lung cancer cell line); test: In vitro cytotoxicity by MTT assay, NCI-H226; format: cell-based; settings: Homo sapiens, 72 h, read-out: % Cytotoxicity (100 − % cell survival) of NCI-H226 cell line; for cytotoxicity at 0.005 µM: NCI-H226, 0.005 μM; for cytotoxicity at 0.045 µM: NCI-H226, 0.045 μM; for cytotoxicity at 0.13 µM: NCI-H226, 0.13 μM; for cytotoxicity at 0.41 µM: NCI-H226, 0.41 μM; for cytotoxicity at 1.23 µM: NCI-H226, 1.23 μM; for cytotoxicity at 3.7 µM: NCI-H226, 3.7 μM; for cytotoxicity at 11.11 µM: NCI-H226, 11.11 μM; for cytotoxicity at 33.33 µM: NCI-H226, 33.33 μM; for cytotoxicity at 100 µM: NCI-H226, 100 μM
Procedure, shortened: as §1

[5] = system: BT474 (breast cancer cell line); test: In vitro cytotoxicity by MTT assay, BT474; format: cell-based; settings: Homo sapiens, 72 h, read-out: % cytotoxicity (100 − % cell survival) of BT474 cell line; for cytotoxicity at 0.005 µM: BT-474, 0.005 μM; for cytotoxicity at 0.015 µM: BT-474, 0.015 μM; for cytotoxicity at 0.045 µM: BT-474, 0.045 μM; for cytotoxicity at 0.13 µM: BT-474, 0.13 μM; for cytotoxicity at 0.41 µM: BT-474, 0.41 μM; for cytotoxicity at 1.23 µM: BT-474, 1.23 μM; for cytotoxicity at 3.7 µM: BT-474, 3.7 μM; for cytotoxicity at 11.11 µM: BT-474, 11.11 μM; for cytotoxicity at 33.33 µM: BT-474, 33.33 μM; for cytotoxicity at 100 µM: BT-474, 100 μM
Procedure, shortened: as §1

Compound	melting point [°C]	cytotoxicity at 72 h, 0.005 µM [2] [%]	cytotoxicity at 72 h, 0.015 µM [2] [%]	cytotoxicity at 72 h, 0.045 µM [2] [%]	cytotoxicity at 72 h, 0.13 µM [2] [%]	cytotoxicity at 72 h, 0.41 µM [2] [%]	cytotoxicity at 72 h, 1.23 µM [2] [%]	cytotoxicity at 72 h, 3.7 µM [2] [%]	cytotoxicity at 72 h, 11.11 µM [2] [%]	cytotoxicity at 72 h, 33.33 µM [2] [%]	cytotoxicity at 72 h, 100 µM [2] [%]	cytotoxicity at 72 h, 0.015 µM [3] [%]	cytotoxicity at 0.005 µM [4] [%]	cytotoxicity at 0.045 µM [4] [%]	cytotoxicity at 0.13 µM [4] [%]	cytotoxicity at 0.41 µM [4] [%]	cytotoxicity at 1.23 µM [4] [%]	cytotoxicity at 3.7 µM [4] [%]	cytotoxicity at 11.11 µM [4] [%]	cytotoxicity at 33.33 µM [4] [%]	also measured
COc1cc(C=Nc2nnc(S(=O)(=O)NC(=O)c3ccccc3)s2)ccc1O [Compound 9g, N-({5-[(4-Hydroxy-3-methoxybenzylidene)amino]-1,3,4-thiadiazol-2-yl}sulfonyl)benzamide]	252 to 254	25.4	27.6	28.5	30.3	31.1	32.1	32.8	33.5	34.1	38.6	33.2	32.7	34.1	35.1	36.3	37.5	38.6	39.2	39.8	cytotoxic activity compared with all synthesized compounds [1]: less activity; cytotoxicity at 100 µM [4]: 42.5%; cytotoxicity at 0.005 µM [5]: 27.4%; cytotoxicity at 0.015 µM [5]: 28%; cytotoxicity at 0.045 µM [5]: 28.7%; cytotoxicity at 0.13 µM [5]: 29.2%; cytotoxicity at 0.41 µM [5]: 31.4%; cytotoxicity at 1.23 µM [5]: 32.8%; cytotoxicity at 3.7 µM [5]: 33.2%; cytotoxicity at 11.11 µM [5]: 34.7%; cytotoxicity at 33.33 µM [5]: 36.2%; cytotoxicity at 100 µM [5]: 38.1%
CN(C)c1ccc(C=Nc2nnc(S(=O)(=O)NC(=O)c3ccccc3)s2)cc1 [Compound 9h, N-[(5-{[4-(Dimethylamino)benzylidene]amino}-1,3,4-thiadiazol-2-yl)sulfonyl]benzamide]	236 to 238	32	32.9	34.5	34.8	35.1	35.7	35.7	36.2	36.9	37.6	35	32.9	35.4	36.3	36.4	37.2	37.5	37.9	39.2	cytotoxicity at 100 µM [4]: 40%; cytotoxicity at 0.005 µM [5]: 29%; cytotoxicity at 0.015 µM [5]: 29.1%; cytotoxicity at 0.045 µM [5]: 30.6%; cytotoxicity at 0.13 µM [5]: 32.9%; cytotoxicity at 0.41 µM [5]: 33.8%; cytotoxicity at 1.23 µM [5]: 34.2%; cytotoxicity at 3.7 µM [5]: 35.2%; cytotoxicity at 11.11 µM [5]: 38.4%; cytotoxicity at 33.33 µM [5]: 41.5%; cytotoxicity at 100 µM [5]: 47.7%

Source: paper PMC3973950, “Synthesis of 5-arylidine amino-1,3,4-thiadiazol-2-[(N-substituted benzyol)]sulphonamides endowed with potent antioxidants and anticancer activity induces growth inhibition in HEK293, BT474 and NCI-H226 cells” (Medicinal Chemistry Research, 2013)
